Results reported in US9265771B2, “Method for treating Lyme disease” (Zoetis Services LLC, priority 2012, dated 2016).
Values joined by “and” are separate entries in the source; they are usually repeats but may differ in a detail not shown here. Equal entries are not always repeated.

Key:
Format in all cases: in vivo, beagle dogs
B. burgdorferi [1] = assay: Study B: SNAP-4Dx ELISA in tick-infected dogs; settings: for SNAP-4Dx Positives, Number of Dogs: N = 8/group
Source text: (§1) Three outer surface proteins (Osp) on B. burgdorferi are important for diagnosis and prevention, and are expressed by the organism in response to its local environment. […] OspF is another surface protein that is generally observed in late-stage disease. The C in […] refers to a 25-amino acid, C6 peptide in the sixth invariable region of an outer membrane lipoprotein (VIsE). Antibody against C6 is highly accurate as a serologic diagnosis of Lyme disease independent of a subject's (e.g., canine) vaccination status. Further, the generation of C6 antibodies implies an active infection with viable spirochetes. Serological methods for detecting B. burgdorfer/Lyme disease were conducted using the IDEXX qualitative SNAP-4Dx ELISA and the Quantitative C6 (Quant C6 or QC6) diagnostic kits, which are enzyme linked immunosorbent assays against the previously described 25-amino-acid C6 peptide. QC6 ELISA data, units/mL, are useful for guidance in initiating and evaluating response to therapy (See Levy S A, O'Connor T P, Hanscom J L, Shields P, et al. Quantitative measurement of a C6 antibody following antibiotic treatment of Borrelia burgdorferi antibody-positive, nonclinical dogs. Clin Vacc Immunol 2008; 15(1):115-119 and Littman M P, Goldstein R E, Labato M A, et al. ACVIM Small Animal Concensus Statement on Lyme Disease in Dogs: Diagnosis, Treatment and Prevention. J Vet Intern Med 2006; 20: 422-434).
(§2) Thirty-two (18 male and 14 female) beagle dogs were sero-negative for Borrelia burgdorferi, not vaccinated with any Borrelia spp vaccines, and acclimated at the study facility for seven days. The study was conducted under National Research Council guidelines (1996). […] Field-caught Ixodes from the northeast USA were placed on the dogs without containment chambers for 10 days; after ticks fed to repletion, dogs were treated with two applications of an approved topical acaricide with a 30-day interval between applications.
(§3) Forty days post-challenge, and prior to antibiotic treatments, blood was collected from each dog as were two skin biopsy punch samples near tick attachment sites. Blood was collected approximately monthly post-treatment. Skin biopsies were taken near the tick attachment site on Days 48/49, 118, 146, 180, and 315. Serum antibodies to Borrelia were assayed using the IDEXX SNAP-4Dx and QC6 ELISA. In cooperation with Cornell University, serum samples were analyzed using fluorescent-bead-based multiplex assays detecting antibodies against B. burgdorferi outer surface proteins OspA, OspC, and OspF. Data were expressed as median fluorescent intensities (MFI), and shown to be specific and sensitive to provide interpretative guidelines regarding infection. The skin biopsies were collected for a polymerase chain reaction (PCR; FlaB) assay and cultured for spirochete detection. At the end of the study, blood and skin biopsies were collected and synovial tissue from the joints were harvested at necropsy.
(§4) On Day 75 and Day 89 Convenia was administered to the eight dogs in T04 (8 mg/kg bodyweight; subcutaneous injection). The other treated groups received their respective regimens daily and orally for 30 days from Days 75 to 104. […] Dogs in T01 served as infected, untreated, controls. Inter-treatment comparisons to evaluate antibiotic efficacy included clinical signs, serology, culture results and pathology.

B. burgdorferi [2] = assay: Study B: microscopic examination of joints and skin at necropsy; settings: for Number of Joints with Changes as Described for Lyme disease: N = 8
Procedure: as §2, §3, §4
At necropsy ten joints were harvested per each dog, formalin-fixed, stained and examined microscopically. Joints included the carpus, elbow, shoulder, stifle and tarsus on both the right and left limbs. Further, a section of skin near tick attachment sites was evaluated from each dog. There were two dogs in the Convenia group (25%) with tissues showing changes as described for Lyme disease, compared to seven controls (87.5%) and three (37.5%) to four (50.0%) dogs in the other antibiotic-treated groups (Table 7). […] The Convenia group had the lowest incidence of joint changes with six affected of 80.

[3] = test system: B. burgdorferi outer surface protein OspC; assay: Study B: fluorescent-bead-based multiplex assay, antibodies against OspC; settings: Day 281
Procedure: as §2
as §3, with “At the end of the study, blood and skin biopsies were collected and synovial tissue from the joints were harvested at necropsy.” left out

B. burgdorferi [4] = assay: Study B: QC6 ELISA in tick-infected dogs; settings: 8 dogs/group
Source text: as §1, §2, §3, §4

[5] = test system: B. burgdorferi outer surface protein OspF; assay: Study B: fluorescent-bead-based multiplex assay, antibodies against OspF; settings: for Multiplex Assay OspF: No. Dogs > Positive Threshold (# dogs > 1500): 8 dogs/group
Procedure: as §2
as §3, with “Data were expressed as median fluorescent intensities (MFI), and shown to be specific and sensitive to provide interpretative guidelines regarding infection.” left out
On Day 75 and Day 89 Convenia was administered to the eight dogs in T04 (8 mg/kg bodyweight; subcutaneous injection). The other treated groups received their respective regimens daily and orally for 30 days from Days 75 to 104. […] Dogs in T01 served as infected, untreated, controls.

[6] = joints, skin, 8 dogs/group, necropsy

Structure (SMILES): CC1(C)S[C@@H]2[C@H](NC(=O)[C@H](N)c3ccc(O)cc3)C(=O)N2[C@H]1C(=O)O [amoxicillin]
- SNAP-4Dx Positives, Number of Dogs (B. burgdorferi [1]; Day 48 (pre-treatment; antibiotics from Day 75)): 5
- SNAP-4Dx Positives, Number of Dogs (B. burgdorferi [1]; Day 111): 7
- SNAP-4Dx Positives, Number of Dogs (B. burgdorferi [1]; Day 145): 3
- SNAP-4Dx Positives, Number of Dogs (B. burgdorferi [1]; Day 179): 2
- SNAP-4Dx Positives, Number of Dogs (B. burgdorferi [1]; Day 221): 0
- SNAP-4Dx Positives, Number of Dogs (B. burgdorferi [1]; Day 251): 0
- SNAP-4Dx Positives, Number of Dogs (B. burgdorferi [1]; Day 281): 0
- SNAP-4Dx Positives, Number of Dogs (B. burgdorferi [1]; Day 315): 0
- SNAP-4Dx Positives, Number of Dogs (B. burgdorferi [1]; Day −15 (pre-infection)): 0
- SNAP-4Dx positive dogs (B. burgdorferi [1]; rest of the study after Day 179): none positive
- Number of Joints with Changes as Described for Lyme disease, Cumulative (B. burgdorferi [2]; 80 total/group): 12
- Number of Joints with Changes as Described for Lyme disease (B. burgdorferi [2]; Carpus L): 2
- Number of Joints with Changes as Described for Lyme disease (B. burgdorferi [2]; Carpus R): 2
- Number of Joints with Changes as Described for Lyme disease (B. burgdorferi [2]; Elbow L): 1
- Number of Joints with Changes as Described for Lyme disease (B. burgdorferi [2]; Elbow R): 1
- Number of Joints with Changes as Described for Lyme disease (B. burgdorferi [2]; Shoulder L): 0
- Number of Joints with Changes as Described for Lyme disease (B. burgdorferi [2]; Shoulder R): 1
- Number of Joints with Changes as Described for Lyme disease (B. burgdorferi [2]; Stifle L): 1
- Number of Joints with Changes as Described for Lyme disease (B. burgdorferi [2]; Stifle R): 2
- Number of Joints with Changes as Described for Lyme disease (B. burgdorferi [2]; Tarsus L): 1
- Number of Joints with Changes as Described for Lyme disease (B. burgdorferi [2]; Tarsus R): 1
- No Tissue Changes, # Dogs (B. burgdorferi [2]; [6]): 4
- No Tissue Changes, % (B. burgdorferi [2]; [6]): 50%
- Tissue Changes Described for Lyme Disease, # Dogs (B. burgdorferi [2]; [6]): 4
- Tissue Changes Described for Lyme Disease, % (B. burgdorferi [2]; [6]): 50%
- Number of dogs above infected threshold (antibody-OspC) [3]: one
- Dogs Sero-converted to B. burgdorferi per QC6 ELISA (≧30 U/mL), (%) (B. burgdorferi [4]; Day 48 (pre-treatment)): 100.0%
- Number of Dogs Sero-converted to B. burgdorferi per QC6 ELISA (≧30 U/mL), No. (B. burgdorferi [4]; Day 48 (pre-treatment)): 8
- Dogs Sero-converted to B. burgdorferi per QC6 ELISA (≧30 U/mL), (%) (B. burgdorferi [4]; Day 111): 75.0%
- Number of Dogs Sero-converted to B. burgdorferi per QC6 ELISA (≧30 U/mL), No. (B. burgdorferi [4]; Day 111): 6
- Dogs Sero-converted to B. burgdorferi per QC6 ELISA (≧30 U/mL), (%) (B. burgdorferi [4]; Day 145): 0.0%
- Number of Dogs Sero-converted to B. burgdorferi per QC6 ELISA (≧30 U/mL), No. (B. burgdorferi [4]; Day 145): 0
- Dogs Sero-converted to B. burgdorferi per QC6 ELISA (≧30 U/mL), (%) (B. burgdorferi [4]; Day 179): 0.0%
- Number of Dogs Sero-converted to B. burgdorferi per QC6 ELISA (≧30 U/mL), No. (B. burgdorferi [4]; Day 179): 0
- Dogs Sero-converted to B. burgdorferi per QC6 ELISA (≧30 U/mL), (%) (B. burgdorferi [4]; Day 221): 0.0%
- Number of Dogs Sero-converted to B. burgdorferi per QC6 ELISA (≧30 U/mL), No. (B. burgdorferi [4]; Day 221): 0
- Dogs Sero-converted to B. burgdorferi per QC6 ELISA (≧30 U/mL), (%) (B. burgdorferi [4]; Day 251): 0.0%
- Number of Dogs Sero-converted to B. burgdorferi per QC6 ELISA (≧30 U/mL), No. (B. burgdorferi [4]; Day 251): 0
- Dogs Sero-converted to B. burgdorferi per QC6 ELISA (≧30 U/mL), (%) (B. burgdorferi [4]; Day 281): 0.0%
- Number of Dogs Sero-converted to B. burgdorferi per QC6 ELISA (≧30 U/mL), No. (B. burgdorferi [4]; Day 281): 0
- Dogs Sero-converted to B. burgdorferi per QC6 ELISA (≧30 U/mL), (%) (B. burgdorferi [4]; Day 314): 0.0%
- Number of Dogs Sero-converted to B. burgdorferi per QC6 ELISA (≧30 U/mL), No. (B. burgdorferi [4]; Day 314): 0
- Multiplex Assay OspF: MFI Mean ([5]; Day 48 (pre-treatment)): 1083.75 MFI
- Multiplex Assay OspF: No. Dogs > Positive Threshold (# dogs > 1500) ([5]; Day 48 (pre-treatment)): 2
- Multiplex Assay OspF: No. Dogs > Positive Threshold (# dogs > 1500) ([5]; Day 111): three and 3
- Multiplex Assay OspF: MFI Mean ([5]; Day 145): 458.13 MFI
- Multiplex Assay OspF: No. Dogs > Positive Threshold (# dogs > 1500) ([5]; Day 145): 0
- Multiplex Assay OspF: MFI Mean ([5]; Day 179): 327.88 MFI
- Multiplex Assay OspF: No. Dogs > Positive Threshold (# dogs > 1500) ([5]; Day 179): 0
- Multiplex Assay OspF: MFI Mean ([5]; Day 221): 269.63 MFI
- Multiplex Assay OspF: No. Dogs > Positive Threshold (# dogs > 1500) ([5]; Day 221): 0
- Multiplex Assay OspF: MFI Mean ([5]; Day 251): 288.63 MFI
- Multiplex Assay OspF: No. Dogs > Positive Threshold (# dogs > 1500) ([5]; Day 251): 0
- Multiplex Assay OspF: MFI Mean ([5]; Day 281): 288.88 MFI
- Multiplex Assay OspF: No. Dogs > Positive Threshold (# dogs > 1500) ([5]; Day 281): 0
- Multiplex Assay OspF: MFI Mean ([5]; Day 314): 278.25 MFI
- Multiplex Assay OspF: No. Dogs > Positive Threshold (# dogs > 1500) ([5]; Day 314): 0
- Multiplex Assay OspF: MFI Mean ([5]; Day −15 (pre-infection)): 133.38 MFI
- Multiplex Assay OspF: No. Dogs > Positive Threshold (# dogs > 1500) ([5]; Day −15 (pre-infection)): 0
- Antibody-OspF status of dogs ([5]; after Day 111): all dogs negative thereafter
